Measured values reported in patent publication US12344879B2, “Transgenic bacteria with expanded amino acid usage and nucleic acid molecules for use in the same” (BOARD OF REGENTS, THE UNIVERSITY OF TEXAS SYSTEM, priority 2015, dated 2025).

Key:
[1] = tested on: human cellular glutathione peroxidase (GPx-1) codon 49; assay: Selenocysteine incorporation into GPx-1 U49 by intact mass spectrometry; design: species or system E. coli RTΔA.2; details: GPx-1 U49, pGPx-U49-AU and pRSF-eSelAK
Procedure: RTΔA.2 transformants containing pGPx-U49-AU and pRSF-eSelAK were cultured as described previously for azurin. Cells were harvested by centrifugation and resuspended in 50 mL of buffer (50 mM Potassium Phosphate, 150 mM NaCl, 10% glycerol, 1 mM DTT at pH 8.0) and lysozyme at 1 mg·mL^−1. Cells were lysed by sonication and clarified prior to GPx-1 recovery by IMAC. Eluate was concentrated and dialyzed against 100 mM phosphate buffer pH 8.0, 0.1% Tween 20 and 1 mM DTT followed by isolation of GPx-1 by anion exchange chromatography (Q HP column). GPx-1 was produced with a yield of 500 μg·L^−1 and close to 100% selenocysteine incorporation efficiency.
Intact protein samples were analyzed using methods described previously (Ellefson et al., 2014). Azurin, DHFR and GPx-1 samples were buffer exchanged into LC-MS grade water using 10 kDa molecular weight cutoff filters. Once the buffer exchange was complete the samples were diluted to 20 μM in a methanol/water/formic acid (50/49/1) solution. […] UVPD mass spectra were also deconvoluted using Xtract and then analyzed using ProsightPC 3.0. […] Incorporation efficiencies were calculated by dividing the area of the modified protein peak by the summed areas of the unmodified protein peak and the modified protein peak. […]

[2] = tested on: NMC-A β-lactamase reporter (C69X); assay: NMC-A β-lactamase reporter assay (ampicillin resistance by amber suppression with selenocysteine); assay type: cell-based, E. coli DHΔabc; details: NMC-A C69X reporter, DHΔabc
From the text: A method of genetic selection capable of discriminating different levels of selenocysteine incorporation was developed. To specifically ‘addict’ a reporter protein to selenocysteine rather than serine, the NMC-A β-lactamase from Enterobacter cloacae was used. […] Then cysteine 69 was replaced with an amber stop codon (X69; FIG. 1a) for library selection, hypothesizing that the incorporation of selenocysteine and the formation of a selenyl-sulfhydryl bond would restore activity. (Swardn et al., 1998)
To eliminate any crosstalk between the tRNA^Sec library and the endogenous selenocysteine incorporation machinery, the selA, selB and selC genes (encoding SelA, SelB and tRNA^Sec respectively) were deleted from E. coli DH10B (designated DHΔabc). Cells containing the reporter plasmid pNMC-A C69X and the accessory plasmid pRSF-eSelA (expressing SelA) were transformed with plasmid pMB1-ZU containing the tRNA^Sec antideterminant library. Transformants were plated on media containing a gradient of ampicillin concentrations for selection of mutants capable of selenocysteine-specific suppression. The single colonies that arose covered a range of ampicillin concentrations. […] Of these tRNA^Sec variants, only G7-C66:U49-G65:C50-U64 was detected at the two highest ampicillin concentration (200 and 250 μg·ml^−1).
The tRNA^Sec antideterminant library was generated by enzymatic inverse PCR using oligonucleotide primers (Table 2) to randomize the six positions identified as the main antideterminant for EF-Tu binding. Following self ligation for 16 hours, DNA was ethanol precipitated with GlycoBlue (Ambion) and transformed by electroporation into E. coli DHΔabc containing the plasmids pNMC-A C69X and pRSF-eSelA. Transformants were diluted in 200 ml LB medium containing 12.5 μg·mL^−1 Zeocin, 6.25 μg·mL^−1 tetracycline and 25 μg·mL^−1 kanamycin and incubated overnight. Following overnight growth, cells were diluted 1/50 in LB medium containing 6.25 μg·mL^−1 Zeocin, 3.75 μg·mL^−1 tetracycline, 12.5 μg·mL^−1 kanamycin, 1 μM Na2SeO3 and 20 μg·mL^−1 L-cysteine and incubated for one hour. A series of 250 μl aliquots of cells were plated on LB agar containing 6.25 μg·mL^−1 Zeocin, 3.75 μg·mL^−1 tetracycline, 12.5 […], 1 μM Na2SeO3 and 20 μg·mL^−1 L-cysteine and 50-300 μg·mL^−1 ampicillin in 50 μg·mL^−1 increments. After 20 hours at 37° C. individual colonies were observed on plates containing 50-200 μg·mL^−1 ampicillin. Plasmid DNA was isolated from a selection of colonies from all plates and tRNA^Sec mutations determined by Sanger sequencing.
NotI/NcoI fragments containing tRNA^SecUx were subcloned into pRSF-eSelA to generate pRSF-UX-eSelA. pRSF-U-eSelA variants described in Table 1 were transformed into E. coli DHΔabc containing the reporter plasmid pNMC-A C69TAG. DHΔabc cells containing pNMC-A and pRSFDuet-1 were used as a positive control. DHΔabc cells harboring pNMC-A C69S and pRSF-UX-eSelA, and pNMC-A C69TAG and pRSF-UX-ΔSelA were used as controls for selenocysteine dependent β-lactamase activity. Transformants were cultured overnight in LB medium containing 6.25 μg·mL^−1 tetracycline, 25 μg·mL^−1 kanamycin, 1 μM Na2SeO3 and 20 […]. Following overnight growth, cells were diluted 1/10 in LB medium containing antibiotics, selenite and L-cysteine and incubated for three hours. […]

[3] = tested on: E. coli formate dehydrogenase H (FdhH); assay: Benzyl viologen assay; assay type: cell-based, E. coli DHΔabcF; details: FdhH U140TAG or U140S reporter, co-expressed with SelA, anaerobic
Procedure: The tRNA^Sec variant containing the G7-C66:U49-G65:C50-U64 (SEQ ID NO: 18) antideterminant sequence was designated tRNA^SecUx and was compared with the previously designed chimera (tRNA^UTu) and with a tRNA^Sec derivative designed to have an antideterminant region that should tightly bind EF-Tu (tRNA^UG; FIG. 2a). […] The hybrid tRNA^UTu incorporated selenocysteine and could grow on 75 μg·ml^−1. […] To further confirm tRNA^SecUx incorporated selenocysteine in response to amber stop codons, a standard colorimetric assay was employed based on the activity of the endogenous E. coli selenoprotein formate dehydrogenase H (FdhH) (FIG. 2b).
E. coli DH10B cells containing pRSFDuet-1 and pcat-pheS were used as a positive control. DHΔabcF cells harboring p15A-fdhF U140S and pRSF-UX-eSelA, and p15A-fdhF U140X and pRSF-UX-ΔSelA were used as controls for selenocysteine dependent formate dehydrogenase activity. Transformants were grown overnight at 37° C. in LB medium supplemented with 12.5 μg·mL^−1 tetracycline and 50 μg·mL^−1 kanamycin. Overnight cultures were diluted 1/20 in a final volume of 2 ml and incubated for three hours. Cultures were normalized to OD600=0.5 and 5 μl aliquots were dotted on LB agar plates containing 3.75 μg·mL^−1 tetracycline, 12.5 μg·mL^−1 kanamycin, 5 mM sodium formate, 10 μM Na2MoO4, 1 μM Na2SeO3 and 20 μg·mL^−1 L-cysteine. Plates were incubated at 37° C. for 3 h under aerobic conditions and then transferred to anaerobic conditions at 37° C. for 60 h. Upon removal from the anaerobic chamber, plates were immediately overlaid with agar containing 1 mg·mL^−1 benzyl viologen, 250 mM sodium formate and 25 mM KH2PO4 at pH 7.0. Plates were photographed within 1 h of overlaying.

GPx-1: Recombinant human cellular glutathione peroxidase with selenocysteine at codon 49
selenocysteine incorporation efficiency in GPx-1 [1]: ~100%

tRNA^SecCUA: Parental E. coli tRNA^Sec containing a CUA anticodon [reference compound]
production of active β-lactamase [2]: failed to produce active β-lactamase

B1: tRNA^UG: tRNA^Sec derivative with strong EF-Tu binding region from the major E. coli tRNA^Gly (nucleic acid)
chain: GGAAGATGGTCGTCTCCGGTGAGGCGGCTGGACTCTAAATCCAGTTGGGGCCGCCAGCGGTCCCGGCGAGGTTCGACTCCTCGTATCTTCCGCCA
modifications: expressed or natural sequence
production of active β-lactamase [2]: failed to produce active β-lactamase

B2: FdhH U140S: E. coli formate dehydrogenase H with serine in place of selenocysteine 140 (protein, UniProt P07658 1-715, looked up, variant U140S)
Formate dehydrogenase H: MKKVVTVCPYCASGCKINLVVDNGKIVRAEAAQGKTNQGTLCLKGYYGWDFINDTQILTPRLKTPMIRRQRGGKLEPVSWDEALNYVAERLSAIKEKYGPDAIQTTGSSRGTGNETNYVMQKFARAVIGTNNVDCCARVSHGPSVAGLHQSVGNGAMSNAINEIDNTDLVFVFGYNPADSHPIVANHVINAKRNGAKIIVCDPRKIETARIADMHIALKNGSNIALLNAMGHVIIEENLYDKAFVASRTEGFEEYRKIVEGYTPESVEDITGVSASEIRQAARMYAQAKSAAILWGMGVTQFYQGVETVRSLTSLAMLTGNLGKPHAGVNPVRGQNNVQGACDMGALPDTYPGYQYVKDPANREKFAKAWGVESLPAHTGYRISELPHRAAHGEVRAAYIMGEDPLQTDAELSAVRKAFEDLELVIVQDIFMTKTASAADVILPSTSWGEHEGVFTAADRGFQRFFKAVEPKWDLKTDWQIISEIATRMGYPMHYNNTQEIWDELRHLCPDFYGATYEKMGELGFIQWPCRDTSDADQGTSYLFKEKFDTPNGLAQFFTCDWVAPIDKLTDEYPMVLSTVREVGHYSCRSMTGNCAALAALADEPGYAQINTEDAKRLGIEDEALVWVHSRKGKIITRAQVSDRPNKGAIYMTYQWWIGACNELVTENLSPITKTPEYKYCAVRVEPIADQRAAEQYVIDEYNKLKTRLREAALA
FdhH activity (reduction of benzyl viologen) [3]: completely inactive
